How the values were obtained:
[1] = Inhibition of bovine recombinant PI3Kgamma expressed in baculovirus-infected Sf21 cells at 100 uM; settings: Bos taurus
[2] = biological target: T1, Phosphatidylinositol 4,5-bisphosphate 3-kinase catalytic subunit delta isoform (Homo sapiens) (UniProt O00329); assay: Inhibition of recombinant PI3Kdelta expressed in baculovirus-infected Sf21 cells at 100 uM
T1 sequence (whole entry): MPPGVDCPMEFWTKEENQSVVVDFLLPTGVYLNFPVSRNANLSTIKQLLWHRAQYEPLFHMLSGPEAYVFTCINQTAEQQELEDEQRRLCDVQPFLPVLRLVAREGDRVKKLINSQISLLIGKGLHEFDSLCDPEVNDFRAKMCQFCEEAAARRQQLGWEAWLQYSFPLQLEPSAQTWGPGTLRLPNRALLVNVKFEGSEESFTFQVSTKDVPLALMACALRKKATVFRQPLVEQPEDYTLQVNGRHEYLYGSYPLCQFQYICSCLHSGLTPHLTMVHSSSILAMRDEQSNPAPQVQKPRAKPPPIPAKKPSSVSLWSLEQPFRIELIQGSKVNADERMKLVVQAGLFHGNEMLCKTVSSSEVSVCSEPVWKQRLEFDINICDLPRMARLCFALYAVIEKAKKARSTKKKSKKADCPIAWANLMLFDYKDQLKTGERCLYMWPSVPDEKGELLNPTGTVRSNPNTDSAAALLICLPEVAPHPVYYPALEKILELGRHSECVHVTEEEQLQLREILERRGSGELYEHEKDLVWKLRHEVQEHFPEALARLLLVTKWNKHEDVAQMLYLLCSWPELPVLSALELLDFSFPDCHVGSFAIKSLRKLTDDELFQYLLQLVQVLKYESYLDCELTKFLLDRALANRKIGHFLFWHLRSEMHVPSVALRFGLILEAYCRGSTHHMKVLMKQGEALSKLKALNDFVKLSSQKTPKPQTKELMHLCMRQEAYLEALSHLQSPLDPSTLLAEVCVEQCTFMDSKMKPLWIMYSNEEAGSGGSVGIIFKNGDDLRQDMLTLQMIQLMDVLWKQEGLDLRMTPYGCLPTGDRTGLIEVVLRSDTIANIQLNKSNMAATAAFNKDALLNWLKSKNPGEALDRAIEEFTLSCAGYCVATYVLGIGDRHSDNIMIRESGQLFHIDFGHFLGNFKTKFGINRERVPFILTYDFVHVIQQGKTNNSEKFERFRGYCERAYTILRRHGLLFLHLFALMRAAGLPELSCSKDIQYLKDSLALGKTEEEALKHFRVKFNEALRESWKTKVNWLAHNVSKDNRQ

[3] = biological target: Phosphatidylinositol 4,5-bisphosphate 3-kinase catalytic subunit alpha isoform (Mus musculus) (UniProt P42337); assay: Inhibition of mouse recombinant PI3Kalpha expressed in baculovirus-infected Sf21 cells at 100 uM
[4] = biological target: T2, Phosphatidylinositol 4,5-bisphosphate 3-kinase catalytic subunit beta isoform (Homo sapiens, UniProt P42338); assay: Inhibition of human recombinant PI3Kbeta expressed in baculovirus-infected Sf21 cells at 100 uM
Target sequence in this assay (P42338 whole entry, looked up, canonical isoform): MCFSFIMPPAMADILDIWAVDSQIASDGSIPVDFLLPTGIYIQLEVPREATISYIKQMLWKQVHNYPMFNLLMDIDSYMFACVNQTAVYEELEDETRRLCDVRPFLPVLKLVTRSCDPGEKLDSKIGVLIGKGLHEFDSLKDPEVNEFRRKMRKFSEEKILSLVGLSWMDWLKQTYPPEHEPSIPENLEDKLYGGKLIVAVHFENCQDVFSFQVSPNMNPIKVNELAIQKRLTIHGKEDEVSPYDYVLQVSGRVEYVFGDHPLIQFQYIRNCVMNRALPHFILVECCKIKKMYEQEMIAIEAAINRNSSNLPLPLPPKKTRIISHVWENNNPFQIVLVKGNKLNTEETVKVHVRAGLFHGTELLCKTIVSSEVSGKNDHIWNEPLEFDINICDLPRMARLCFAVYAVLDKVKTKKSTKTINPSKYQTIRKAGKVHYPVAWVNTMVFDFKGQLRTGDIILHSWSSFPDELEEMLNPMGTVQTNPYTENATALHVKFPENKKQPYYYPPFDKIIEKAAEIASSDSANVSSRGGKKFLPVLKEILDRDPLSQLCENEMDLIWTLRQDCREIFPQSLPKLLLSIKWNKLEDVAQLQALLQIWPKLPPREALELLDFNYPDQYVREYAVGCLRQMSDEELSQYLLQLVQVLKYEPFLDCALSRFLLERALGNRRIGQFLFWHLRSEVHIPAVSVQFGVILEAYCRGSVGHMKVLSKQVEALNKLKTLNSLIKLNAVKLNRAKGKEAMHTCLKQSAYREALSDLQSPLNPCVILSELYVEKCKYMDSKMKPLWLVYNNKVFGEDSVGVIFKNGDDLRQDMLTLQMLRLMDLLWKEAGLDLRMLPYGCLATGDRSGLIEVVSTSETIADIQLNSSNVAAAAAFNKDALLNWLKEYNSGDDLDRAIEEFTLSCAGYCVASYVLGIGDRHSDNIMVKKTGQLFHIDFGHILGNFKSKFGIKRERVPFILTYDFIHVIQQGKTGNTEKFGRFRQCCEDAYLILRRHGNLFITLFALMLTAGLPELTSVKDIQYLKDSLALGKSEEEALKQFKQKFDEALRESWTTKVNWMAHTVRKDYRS

[5] = Inhibition of bovine recombinant PI3Kgamma expressed in baculovirus-infected Sf21 cells; parameters: species or system Bos taurus
[6] = biological target: T2, Phosphatidylinositol 4,5-bisphosphate 3-kinase catalytic subunit beta isoform; assay: Inhibition of human recombinant PI3Kbeta expressed in baculovirus-infected Sf21 cells
Target sequence in this assay (P42338 whole entry, canonical isoform): as the sequence (P42338 whole entry, looked up, canonical isoform) above

[7] = biological target: Phosphatidylinositol 4,5-bisphosphate 3-kinase catalytic subunit alpha isoform (Mus musculus, UniProt P42337); assay: Inhibition of mouse recombinant PI3Kalpha expressed in baculovirus-infected Sf21 cells
[8] = biological target: T3, Phosphatidylinositol 4,5-bisphosphate 3-kinase catalytic subunit delta isoform (Homo sapiens, UniProt O00329); assay: Inhibition of recombinant PI3Kdelta expressed in baculovirus-infected Sf21 cells
T3 sequence (O00329 whole entry): T1 sequence (whole entry)

[9] = Selectivity for PI3Kgamma over PI3Kalpha
[10] = Selectivity for PI3Kgamma over PI3Kdelta
[11] = Selectivity for PI3Kgamma over PI3Kbeta

Sequence of Phosphatidylinositol 4,5-bisphosphate 3-kinase catalytic subunit alpha isoform (Mus musculus) (P42337 whole entry, canonical isoform): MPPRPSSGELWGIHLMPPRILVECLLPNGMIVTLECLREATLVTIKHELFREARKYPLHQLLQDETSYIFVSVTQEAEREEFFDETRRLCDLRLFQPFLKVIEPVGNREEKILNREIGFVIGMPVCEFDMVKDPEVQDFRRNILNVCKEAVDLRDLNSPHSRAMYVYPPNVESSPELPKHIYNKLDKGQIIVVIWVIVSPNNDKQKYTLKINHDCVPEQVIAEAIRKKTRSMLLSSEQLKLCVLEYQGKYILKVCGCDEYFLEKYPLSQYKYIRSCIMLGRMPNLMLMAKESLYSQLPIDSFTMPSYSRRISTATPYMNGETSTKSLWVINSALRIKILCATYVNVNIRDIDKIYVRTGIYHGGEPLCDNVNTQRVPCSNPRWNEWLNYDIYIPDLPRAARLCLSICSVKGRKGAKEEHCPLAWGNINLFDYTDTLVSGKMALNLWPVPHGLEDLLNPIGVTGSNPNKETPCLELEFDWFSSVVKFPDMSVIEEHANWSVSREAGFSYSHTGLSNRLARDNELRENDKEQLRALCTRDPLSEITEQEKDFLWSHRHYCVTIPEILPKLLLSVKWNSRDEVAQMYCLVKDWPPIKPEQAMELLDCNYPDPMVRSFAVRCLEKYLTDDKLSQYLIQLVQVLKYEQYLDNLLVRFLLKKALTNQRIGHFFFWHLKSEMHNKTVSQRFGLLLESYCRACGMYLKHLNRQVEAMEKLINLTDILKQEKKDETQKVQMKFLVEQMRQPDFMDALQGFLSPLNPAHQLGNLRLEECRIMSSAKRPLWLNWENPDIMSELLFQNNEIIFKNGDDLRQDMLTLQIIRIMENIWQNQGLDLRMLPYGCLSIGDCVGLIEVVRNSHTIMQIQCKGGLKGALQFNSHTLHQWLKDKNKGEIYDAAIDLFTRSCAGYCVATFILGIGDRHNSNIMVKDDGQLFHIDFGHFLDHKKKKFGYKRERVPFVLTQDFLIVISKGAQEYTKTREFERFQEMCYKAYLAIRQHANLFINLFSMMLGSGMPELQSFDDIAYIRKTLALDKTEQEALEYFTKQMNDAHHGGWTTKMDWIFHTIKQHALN
Sequence of Phosphatidylinositol 4,5-bisphosphate 3-kinase catalytic subunit alpha isoform (P42337 whole entry, canonical isoform): as above

Compound | inhibition [1] [%] | inhibition [2] [%] | inhibition [3] [%] | inhibition [4] [%] | IC50 [5] [µM] | IC50 [6] [µM] | IC50 [7] [µM] | IC50 [8] [µM] | Ratio [9] | Ratio [10] | Ratio [11]
O=c1oc2cc(O)ccc2cc1-c1nc2ccccc2s1 | > 40 | > 40 | > 40 | > 40 | 12 | 14 | 3 | 4 |  |  | 
COc1cccc(-c2nc(-c3cc4cc(OC)ccc4[nH]c3=O)no2)c1 | > 40 | > 40 | > 40 | > 40 | 4 | 3 | 0.9 | 0.9 |  |  | 
COc1ccccc1-c1nc(-c2cc3cc(C)ccc3[nH]c2=O)no1 | > 40 | > 40 | > 40 | > 40 | 75 |  | > 100 |  |  |  | 
Cc1ccc2cc3c(OC(=O)COc4ccccc4)nn(C)c3nc2c1 | > 40 | > 40 | > 40 | > 40 | 16 | > 100 | 38 | 47 |  |  | 
COc1nc(-c2ccccc2)ccc1-c1noc(-c2ccncc2)n1 | > 40 | > 40 | > 40 | > 40 | > 100 | > 100 | 78 |  |  |  | 
O=c1cc(N2CCOCC2)oc2c(-c3ccccc3)cccc12 [LY-294002] | > 40 | > 40 | > 40 | > 40 |  |  |  |  |  |  | 
O=C(CCn1c(=O)oc2cc(Cl)ccc21)Nc1ccccc1 | > 40 | > 40 | > 40 | > 40 | 6 | 12 | 19 | > 100 |  |  | 
O=C1NC(=O)/C(=C/c2ccc3nccnc3c2)S1 |  |  |  |  |  |  |  |  | 7.5 | > 30 | > 30
COC(=O)c1ccc(CSc2ncnc3sc(C)c(C)c23)o1 | > 40 | > 40 | > 40 | > 40 | 71 | > 100 | > 100 | > 100 |  |  | 

From ChEMBL document CHEMBL1156056, “Phosphoinositide-3-kinase (PI3K) inhibitors: identification of new scaffolds using virtual screening” (Bioorg Med Chem Lett, 2009)
